Publication PMC9477868, “Gut bacteria induce oviposition preference through ovipositor recognition in fruit fly” (Communications Biology, 2022)

Experiments:
Format in all cases: binding
[1] = target: T1, Obp56d (Bactrocera dorsalis, UniProt A0A6I9V3V6); assay: fluorescence titration, microplate reader (ex […] nm); settings: 2 uM Obp, 2-16 uM 1-NPN, 50 mM Tris-HCl, pH 7.4; fluorescent probe; one-site fit
T1 construct: gene LOC105221864; recombinant, E. coli Rosetta (DE3), pET-32a(+) vector, designed from CDS; about 29 kDa on SDS-PAGE; anion-exchange purified
T1 sequence (A0A6I9V3V6 19-138): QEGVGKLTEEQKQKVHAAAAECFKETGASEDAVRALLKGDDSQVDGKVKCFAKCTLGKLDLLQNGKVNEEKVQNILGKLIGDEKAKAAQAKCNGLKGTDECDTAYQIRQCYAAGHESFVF

[2] = target: T2, Obp56d-2 (Bactrocera dorsalis, UniProt A0ACM8RD04); assay: as above; settings: 2 uM Obp, 2-16 uM 1-NPN, 50 mM Tris-HCl, pH 7.4; fluorescent probe; one-site fit
T2 construct: gene LOC105221865; recombinant, E. coli Rosetta (DE3), pET-32a(+) vector, designed from CDS; about 29 kDa on SDS-PAGE; anion-exchange purified
T2 sequence (A0ACM8RD04 19-138): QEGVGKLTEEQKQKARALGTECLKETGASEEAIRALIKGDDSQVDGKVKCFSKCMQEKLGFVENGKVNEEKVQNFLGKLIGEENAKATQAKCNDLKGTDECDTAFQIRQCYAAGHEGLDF

[3] = target: T1, Obp56d; assay: competitive displacement of 1-NPN fluorescence; settings: 3-HA 0-16 uM; 2 uM Obp, 50 mM Tris-HCl, pH 7.4; competitive with 1-NPN
[4] = target: T2, Obp56d-2; assay: competitive displacement of 1-NPN fluorescence; settings: 3-HA 0-16 uM; 2 uM Obp, 50 mM Tris-HCl, pH 7.4; competitive with 1-NPN

For `c1ccc(Nc2cccc3ccccc23)cc1` [1-NPN], the dissociation constant [1] was “Then the dissociation constants of the Obp56d and Obp56d-2 were generated” and the dissociation constant [2] was “Then the dissociation constants of the Obp56d and Obp56d-2 were generated”.
`CCC=CCCOC(C)=O` [3-HA] was tested, and the “% reduction of relative fluorescence intensity of the Obp/1-NPN complex” value [3] was greater than 50% and the “% reduction of relative fluorescence intensity of the Obp/1-NPN complex” value [4] was greater than 50%.
